Experimental data taken from patent US11926618B2, “Halogen-substituted phenylate compound and applications thereof” (HINOVA PHARMACEUTICALS INC., priority 2019, dated 2024).
Like-named read-outs stand apart in the source and are kept apart here.

How the values were obtained:
[1] = biological target: T1, THR-β (Homo sapiens, UniProt P10828); experiment: Agonistic activity on THR-β (TRβ-LBD/RXRα, biotin-SRC2-2 recruitment, fluorescence ratio 665 nm/615 nm); assay type: biochemical; settings: for Selectivity THR-β/THR-α: THR-α EC50 ÷ THR-β EC50; for Agonistic activity for THR-β compared to control compound MGL-3196: in words, versus MGL-3196
T1 construct: A mixed solution of 4× TRα-LBD or TRβ-LBD and 4× RXRα was prepared
T1 sequence (P10828 217-461 limits assumed, other chains not shown): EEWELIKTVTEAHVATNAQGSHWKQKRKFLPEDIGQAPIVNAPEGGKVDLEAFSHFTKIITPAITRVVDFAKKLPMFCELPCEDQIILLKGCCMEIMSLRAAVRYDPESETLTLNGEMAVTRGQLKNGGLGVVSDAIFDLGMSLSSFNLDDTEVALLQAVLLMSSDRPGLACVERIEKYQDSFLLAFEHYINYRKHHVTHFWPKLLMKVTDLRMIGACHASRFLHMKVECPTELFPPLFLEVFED
T1 sequence (P19793 whole entry partner, other chains not shown, the tested form may be a part): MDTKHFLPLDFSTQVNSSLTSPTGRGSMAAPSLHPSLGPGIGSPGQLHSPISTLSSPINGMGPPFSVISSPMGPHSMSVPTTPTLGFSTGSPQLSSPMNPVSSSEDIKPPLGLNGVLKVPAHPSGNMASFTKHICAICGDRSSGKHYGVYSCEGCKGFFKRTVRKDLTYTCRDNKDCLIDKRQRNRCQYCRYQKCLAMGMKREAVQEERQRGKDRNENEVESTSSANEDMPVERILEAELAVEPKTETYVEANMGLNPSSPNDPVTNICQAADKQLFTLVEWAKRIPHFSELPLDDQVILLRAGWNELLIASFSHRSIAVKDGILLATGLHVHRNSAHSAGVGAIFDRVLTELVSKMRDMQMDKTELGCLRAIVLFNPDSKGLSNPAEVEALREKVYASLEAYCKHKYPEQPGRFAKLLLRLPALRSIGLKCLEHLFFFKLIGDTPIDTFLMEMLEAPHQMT
Experimental: (§1) 100× solutions of reference compounds or compounds were prepared with DMSO and then diluted in a 1:3 equal ratio. The gradient dilution of 100× reference compound or compound was further diluted to 4× with 1× reaction buffer and then added to the test plate. A mixed solution of 4× TRα-LBD or TRβ-LBD and 4× RXRα was prepared with 1× reaction buffer and added to the test plate. […] The plate was centrifuged at 1000 rpm for 1 min and then incubated at room temperature and in the dark for 4 h.

[2] = biological target: T2, THR-α (Homo sapiens, UniProt P10827); experiment: Agonistic activity on THR-α (TRα-LBD/RXRα, biotin-SRC2-2 recruitment, fluorescence ratio 665 nm/615 nm); assay type: biochemical; settings: for Agonistic activity for THR-α compared to control compound MGL-3196: in words, versus MGL-3196
T2 construct: A mixed solution of 4× TRα-LBD or TRβ-LBD and 4× RXRα was prepared
T2 sequence (P10827 163-410 isoform P10827-2 limits assumed, other chains not shown): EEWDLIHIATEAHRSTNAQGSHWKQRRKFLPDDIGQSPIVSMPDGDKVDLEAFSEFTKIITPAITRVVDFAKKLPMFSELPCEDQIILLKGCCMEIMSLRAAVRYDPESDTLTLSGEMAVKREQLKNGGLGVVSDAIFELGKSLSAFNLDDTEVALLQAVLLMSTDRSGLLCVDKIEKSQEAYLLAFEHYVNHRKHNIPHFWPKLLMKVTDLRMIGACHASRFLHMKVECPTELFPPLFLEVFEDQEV
T2 sequence (P19793 whole entry partner, other chains not shown, the tested form may be a part): as the sequence (P19793 whole entry partner, other chains not shown, the tested form may be a part) above
Experimental: as §1

[3] = Pharmacokinetic test in ICR mice, plasma concentration by LC/MS/MS; assay type: in vivo; settings: for AUC(0-inf): read-out: Exposure AUCinf
Experimental: • Polyethylene glycol 400 (PEG400), manufacturer: Chengdu Kelong Chemical Reagent Factory; • Hydroxypropyl 3-cyclodextrin (HP-β-CD), manufacturer: Shanghai Dibai Chemical Technology Co., Ltd.; • HPC LF, manufacturer: Chengdu Yuannuo Tiancheng Technology Co., Ltd.; • Heparin sodium, manufacturer: Chengdu Kelong Chemical Reagent Factory. • Experimental animals: ICR mice (Chengdu Dossy Experimental Animals CO., LTD.) 2) Experimental Method
Preparation of Test Compound Solution
IV group: 1.15 mg of test compound was accurately weighed, and then DMA (0.228 ml) was added to dissolve the compound, to which were successively added PEG400 (1.139 ml) and 0.1 M of phosphate buffer (5.012 ml). Finally, 40% HP-B-CD was added to the final volume of 11.39 ml. The solution was thoroughly mixed by ultrasonic vortex. A clear solution at the concentration of 0.1 mg/ml was prepared.
PO group: 5.06 mg of test compound was precisely weighed, and then 2% HPC LF (containing 0.1% Tween-80) was added to the final volume of 20.04 ml. The solution was mixed by ultrasound, to prepare a uniform suspension at the concentration of 0.25 mg/ml.
After fasting overnight (free drinking water), nine adult ICR mice (3 mice for each time point) were administered by injection via tail vein and by gavage, respectively. For IV group, 5 min, 15 min, 0.5 h, 1 h, 2 h, 4 h, 8 h, 12 h and 24 h after administration, 0.1 ml of blood was collected from the submandibular vein, centrifuged at 4° C. for 5 min to separate the plasma, and stored at −20° C. for detection. For PO group, before administration and 0.5 h, 1 h, 2 h, 4 h, 6 h, 8 h, 12 h and 24 h after administration, 0.1 ml of blood was collected from the submandibular vein, and the processing was the same as that of IV group.
Then, the concentration of original drug in plasma was determined by LC/MS/MS. The plasma concentration-time curve was plotted, and the main pharmacokinetic parameters were calculated with WinNonlin 6.3 software (see Table 2).

SMILES	EC50 [1]	EC50 [2]	AUC(0-inf) ([3]; ICR, mouse, plasma, dosage 2 mg/kg, route not given)	half-life ([3]; ICR, mouse, plasma, dosage 2 mg/kg, route not given, read-out: Half-life T1/2 (converted))	Cmax ([3]; ICR, mouse, plasma, dosage 2 mg/kg, route not given, read-out: Peak concentration Cmax)	Tmax ([3]; ICR, mouse, plasma, dosage 2 mg/kg, route not given, read-out: Peak time Tmax)	Half-life compared to MGL-3196 ([3]; compound at a lower dose, in words)	Selectivity THR-β/THR-α [1]	AUC(0-inf) ([3]; ICR, mouse, plasma, dosage 5 mg/kg, route not given)	Peak time Tmax ([3]; dosage 5 mg/kg, route not given)	Agonistic activity for THR-β compared to control compound MGL-3196 [1]	Agonistic activity for THR-α compared to control compound MGL-3196 [2]
[2H]C([2H])([2H])C(c1cc(Oc2c(Br)cc(-n3nc(C#N)c(=O)[nH]c3=O)cc2Br)n[nH]c1=O)C([2H])([2H])[2H] [Compound 14]	27 nM	326 nM						12			significantly higher agonistic activities	significantly higher agonistic activities
CC(C)c1cc(Oc2c(Cl)cc(-n3nc(C#N)c(=O)[nH]c3=O)cc2Br)n[nH]c1=O [Compound 1, 2-(3-bronco-5-chloro-4-((5-isopropyl-6-oxo-1,6-dihydropyridazin-3-yl)oxy)phenyl)-3,5-dioxo-2,3,4,5-tetrahydro-1,2,4-triazine-6-nitrile]	57 nM	1020 nM									significantly higher agonistic activities	significantly higher agonistic activities
[2H]c1c(Oc2c(Cl)cc(-n3nc(C#N)c(=O)[nH]c3=O)cc2Br)n[nH]c(=O)c1C(C([2H])([2H])[2H])C([2H])([2H])[2H] [Compound 3, 2-(3-bromo-5-chloro-4-((4-deutero-5-(1,1,1,3,3,3-hexadeuteropropyl-2-yl)-6-oxo-1,6-dihydropyrazin-3-yl)oxy)phenyl)-3,5-dioxy-2,3,4,5-tetrahydro-1,2,4-triazine-6-nitrile]	60 nM	1330 nM									significantly higher agonistic activities	
CC(C)c1cc(Oc2c(Cl)cc(-n3nc(C#N)c(=O)[nH]c3=O)cc2Cl)n[nH]c1=O [MGL-3196, reference compound]									9360 ng·h/mL	2 h		

Now from value to compound, other results behind:

EC50 [1]	EC50 [2]	AUC(0-inf) ([3]; ICR, mouse, plasma, dosage 2 mg/kg, route not given)	half-life ([3]; ICR, mouse, plasma, dosage 2 mg/kg, route not given, read-out: Half-life T1/2 (converted))	Cmax ([3]; ICR, mouse, plasma, dosage 2 mg/kg, route not given, read-out: Peak concentration Cmax)	Tmax ([3]; ICR, mouse, plasma, dosage 2 mg/kg, route not given, read-out: Peak time Tmax)	Half-life compared to MGL-3196 ([3]; compound at a lower dose, in words)	Selectivity THR-β/THR-α [1]	AUC(0-inf) ([3]; ICR, mouse, plasma, dosage 5 mg/kg, route not given)	Peak time Tmax ([3]; dosage 5 mg/kg, route not given)	SMILES	Agonistic activity for THR-β compared to control compound MGL-3196 [1]	Agonistic activity for THR-α compared to control compound MGL-3196 [2]
52 nM	1060 nM	9260 ng·h/mL	5.25 h	960 ng/mL	4 h	longer				[2H]C([2H])([2H])C(c1cc(Oc2c(Cl)cc(-n3nc(C#N)c(=O)[nH]c3=O)cc2Br)n[nH]c1=O)C([2H])([2H])[2H] [Compound 2, 2-(3-bromo-5-chloro-4-((5-di(trideuteromethyl)methyl-6-oxo-1,6-dihydropyridazine-3-yl)oxy)phenyl)-3,5-dioxo-2,3,4,5-tetrahydro-1,2,4-triazine-6-nitrile]		
19 nM	349 nM						18			[2H]c1c(Oc2c(Br)cc(-n3nc(C#N)c(=O)[nH]c3=O)cc2Br)n[nH]c(=O)c1C(C([2H])([2H])[2H])C([2H])([2H])[2H] [Compound 15, 2-(3,5-dibromo-4-((6-oxo-5-(propan-2-yl-1,1,1,3,3,3-d6)-1,6-dihydropyridazin-3-yl-4-d)oxy)phenyl)-3,5-dioxy-2,3,4,5-tetrahydro-1,2,4-triazine-6-nitrile]	significantly higher agonistic activities	significantly higher agonistic activities
30 nM	800 nM						27			CC(C)c1cc(Oc2c(Br)cc(-n3nc(C#N)c(=O)[nH]c3=O)cc2Br)n[nH]c1=O [Compound 13, 2-(3,5-Dibromo-4-((5-isopropyl-6-oxo-1,6-dihydropyridazin-3-yl)oxy)phenyl)-3,5-dioxy-2,3,4,5-tetrahydro-1,2,4-triazine-6-nitrile]	significantly higher agonistic activities	significantly higher agonistic activities
